Reference: ChEMBL document CHEMBL1122718, “Benzylamines: synthesis and evaluation of antimycobacterial properties” (1984)

Experiments:
[1] = tested on: Mycobacterium tuberculosis; assay: Compounds were evaluated for the minimum inhibitory concentration (MIC) Mycobacterium tuberculosis H 37 Rv (thiosemicarbazone resistant); assay type: functional
[2] = tested on: Mycobacterium tuberculosis; assay: Compounds were evaluated for the minimum inhibitory concentration (MIC) Mycobacterium tuberculosis H 37 Rv (INH resistant); assay type: functional

Question: With `CCCCNCc1cccc(F)c1.Cl` as the compound, how does the MIC [1] read?
Answer: 32 µg/mL

Question: And the MIC [2]?
Answer: 8 µg/mL
